Experimental findings from ChEMBL document CHEMBL4806968, “Hipk inhibitors and methods of use thereof” (2020) are described below.

The target in experiment [1] is T1, Ephrin type-B receptor 4 (Homo sapiens) (UniProt P54760).
T1 sequence (whole entry): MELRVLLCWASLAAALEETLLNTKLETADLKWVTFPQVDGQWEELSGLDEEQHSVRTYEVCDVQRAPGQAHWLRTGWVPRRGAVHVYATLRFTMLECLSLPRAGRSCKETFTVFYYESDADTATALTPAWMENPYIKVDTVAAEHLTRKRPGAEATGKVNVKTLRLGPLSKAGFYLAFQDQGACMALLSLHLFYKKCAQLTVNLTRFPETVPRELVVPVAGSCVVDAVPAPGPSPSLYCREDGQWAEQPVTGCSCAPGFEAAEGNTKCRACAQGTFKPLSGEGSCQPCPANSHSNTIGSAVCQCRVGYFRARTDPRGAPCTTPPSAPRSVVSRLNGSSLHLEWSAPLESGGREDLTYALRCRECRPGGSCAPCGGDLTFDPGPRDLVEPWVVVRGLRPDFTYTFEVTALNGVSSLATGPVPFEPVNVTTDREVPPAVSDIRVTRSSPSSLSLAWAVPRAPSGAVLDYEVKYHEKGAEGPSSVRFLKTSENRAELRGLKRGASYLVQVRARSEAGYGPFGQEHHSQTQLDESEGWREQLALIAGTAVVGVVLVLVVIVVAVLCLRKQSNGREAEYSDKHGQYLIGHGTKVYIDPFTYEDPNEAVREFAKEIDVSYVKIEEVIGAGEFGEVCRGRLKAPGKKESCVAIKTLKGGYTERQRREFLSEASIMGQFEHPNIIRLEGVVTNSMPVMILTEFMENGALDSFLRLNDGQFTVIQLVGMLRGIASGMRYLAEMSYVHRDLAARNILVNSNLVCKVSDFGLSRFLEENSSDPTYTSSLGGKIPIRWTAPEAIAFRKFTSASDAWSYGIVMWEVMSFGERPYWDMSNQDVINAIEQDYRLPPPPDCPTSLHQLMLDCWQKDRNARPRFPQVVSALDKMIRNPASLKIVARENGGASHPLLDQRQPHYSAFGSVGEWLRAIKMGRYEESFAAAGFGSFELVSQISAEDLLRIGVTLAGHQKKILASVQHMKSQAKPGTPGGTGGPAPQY
Nature of the experiment: Inhibition of EPHB4 (unknown origin) at 0.5 uM relative to control.

Experiment [2] addresses T2, Homeodomain-interacting protein kinase 4 (Homo sapiens, UniProt Q8NE63).
T2 sequence (Q8NE63 whole entry): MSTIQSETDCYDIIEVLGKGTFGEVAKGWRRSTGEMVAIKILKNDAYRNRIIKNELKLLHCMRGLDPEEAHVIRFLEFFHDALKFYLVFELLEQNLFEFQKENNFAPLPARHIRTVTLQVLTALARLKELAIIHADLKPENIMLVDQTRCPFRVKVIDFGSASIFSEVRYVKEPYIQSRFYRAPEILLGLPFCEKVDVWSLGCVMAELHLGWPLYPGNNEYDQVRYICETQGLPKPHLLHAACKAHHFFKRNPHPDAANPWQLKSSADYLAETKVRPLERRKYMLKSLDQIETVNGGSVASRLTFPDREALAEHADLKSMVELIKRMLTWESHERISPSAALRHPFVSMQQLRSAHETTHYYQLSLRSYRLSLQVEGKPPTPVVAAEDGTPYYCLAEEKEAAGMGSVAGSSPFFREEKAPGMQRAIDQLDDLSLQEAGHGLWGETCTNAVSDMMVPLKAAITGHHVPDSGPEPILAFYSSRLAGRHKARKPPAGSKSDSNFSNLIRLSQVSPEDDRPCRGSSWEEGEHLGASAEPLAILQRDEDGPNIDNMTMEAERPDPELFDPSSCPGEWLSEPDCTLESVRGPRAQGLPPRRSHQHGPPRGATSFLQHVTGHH
Kind of experiment: Inhibition of HIPK4 (unknown origin).

Experiment [3] deals with T3, Discoidin domain-containing receptor 2 (Homo sapiens) (UniProt Q16832).
T3 sequence (whole entry): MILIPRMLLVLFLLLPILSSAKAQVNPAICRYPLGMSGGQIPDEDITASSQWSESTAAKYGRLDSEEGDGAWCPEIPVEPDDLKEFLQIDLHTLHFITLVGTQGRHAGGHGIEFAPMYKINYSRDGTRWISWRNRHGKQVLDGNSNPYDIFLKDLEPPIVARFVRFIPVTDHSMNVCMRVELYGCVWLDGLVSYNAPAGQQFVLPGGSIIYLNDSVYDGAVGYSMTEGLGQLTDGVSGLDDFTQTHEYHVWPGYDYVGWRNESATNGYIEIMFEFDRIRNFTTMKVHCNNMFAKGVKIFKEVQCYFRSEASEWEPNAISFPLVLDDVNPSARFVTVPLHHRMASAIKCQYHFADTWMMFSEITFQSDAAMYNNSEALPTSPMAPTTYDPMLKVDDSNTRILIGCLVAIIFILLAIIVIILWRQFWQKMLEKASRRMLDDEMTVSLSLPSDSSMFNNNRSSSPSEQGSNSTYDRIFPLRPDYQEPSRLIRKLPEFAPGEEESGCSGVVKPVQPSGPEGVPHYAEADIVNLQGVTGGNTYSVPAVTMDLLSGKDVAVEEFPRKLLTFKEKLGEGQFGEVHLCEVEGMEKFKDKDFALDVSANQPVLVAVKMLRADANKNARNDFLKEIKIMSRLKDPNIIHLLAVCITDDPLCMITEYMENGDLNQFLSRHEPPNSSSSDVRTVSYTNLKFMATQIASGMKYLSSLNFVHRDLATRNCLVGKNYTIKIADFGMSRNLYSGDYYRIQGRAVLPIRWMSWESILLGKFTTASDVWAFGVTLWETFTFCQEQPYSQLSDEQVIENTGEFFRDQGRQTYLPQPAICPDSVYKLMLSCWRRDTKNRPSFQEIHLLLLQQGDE
Nature of the experiment: Inhibition of DDR2 (unknown origin) at 0.5 uM relative to control.

On to `CNC(=O)c1cc(Oc2ccc(NC(=O)c3nc(SC)n(CCN(C)C)c3-c3ccc(F)cc3)cc2)ccn1`, for which the values for the inhibition in experiment [1] and in experiment [3] were 25% and 26%, respectively. Besides, in experiment [2], the half-inhibitory concentration (IC50) is 23 nM.

`CNC(=O)c1cc(Oc2ccc(NC(=O)c3nc(S(C)(=O)=O)sc3-c3ccc(F)cc3)cc2)ccn1`: the results for the inhibition in experiment [1] and in experiment [3] were 24% and 61%, respectively. The compound further yielded an IC50 in experiment [2] of 5.1 nM.

For the compound `CNC(=O)c1cc(Oc2ccc(NC(=O)c3nc(SC)oc3-c3ccc(F)cc3)cc2F)ccn1`, the inhibition was 43% in experiment [1] and 47% in experiment [3]. The same compound returned an IC50 in experiment [2] of 2.8 nM.

On to `CNC(=O)c1cc(Oc2ccc(NC(=O)c3nc(C(F)(F)F)sc3-c3ccc(F)cc3)cc2)ccn1`, for which the inhibition in experiment [1] is 24%. Moreover, in experiment [2], the IC50 stood at 9.6 nM.

As to `CSc1nc(C(=O)Nc2ccc(Oc3cc4cnn(C)c4cc3Br)cc2)c(-c2ccc(F)cc2)o1`, in experiment [2], the IC50 was 32 nM. The compound also came in with an inhibition in experiment [3] of 48%.

`CNC(=O)c1cc(Oc2ccc(NC(=O)c3nc(SC)[nH]c3-c3ccc(F)cc3)cc2)ccn1`: the inhibition was determined as 82% in experiment [1] and 97% in experiment [3]. In experiment [2], this compound had an IC50 of 19 nM.

In experiment [2], `CNC(=O)c1cc(Oc2ccc(NC(=O)c3n[nH]nc3-c3ccc(F)cc3)cc2)ccn1` displayed an IC50 of 49 nM. Further, the inhibition in experiment [3] amounted to 76%.

Compound `CNC(=O)c1cc(Oc2ccc(NC(=O)c3nc(NC)sc3-c3ccc(F)cc3)cc2)ccn1` showed an IC50 in experiment [2] of 5.2 nM. The compound also gave an inhibition in experiment [3] of 54%.

In the case of `CNC(=O)c1cc(Oc2ccc(NC(=O)c3nc(SC)oc3-c3ccc(F)cc3)cc2)ccn1`, the figures for the inhibition in experiment [1] and in experiment [3] were 42% and 58%, respectively. In addition, in experiment [2], inhibition was half-maximal at 3.3 nM (IC50).
